Results on four compounds are retold here after patent US20070166547A1, “Use of a layer consisting of hydrophobic linear, or two-dimensional polycyclic aromatics as a barrier layer or an encapsulation and electric components constructed with a layer of this type and comprising organic polymers” (priority 2003, published 2007).

The subject of one assay is plasma hemostasis. The assay can be described thus: Prothrombin time after intravenous administration. The settings on record: for effect on the prothrombin time index (overall): doses of 15.0, 30.0, 60.0 mg/kg. Format: in vivo, rabbit. The protocol:
The investigations were performed on 72 rabbits of the “Chinchilla” breed with a mass of 2.5±0.3 kg, who were administered which solutions of compounds 2, 15, 21, 37 in doses of 15, 30 and 60 mg/kg intravenously. The experiments included the thrombin-test (series No. 7300) and the coagulability-test (series No. 5000) purchased from the scientific-and-production association (SPA) “Renam”, thromboplastin (series No. 240600) and calcium chloride purchased from the SPA “MedioLab”
The static parameters of the blood and plasma coagulation (partial activated thromboplastin time, thrombin time, maximum coagulation activity (test for auto coagulation) were determined using the Behnk Electronic coagulometer (Germany). The operating principle of this instrument is based on the fact that the formed blood clot breaks the contacts of the pulse counter in the flask-pin circuit, said pin permanently oscillating in a vertical plane. The moment of formation of the clot is registered by stopping the stop watch hand.
The measurements were effected at a constant temperature of 37° C. maintained by a temperature control unit.
The method of its determination is based on estimation of the coagulation of citrate or oxalic blood plasma, when it is mixed with thromboplastin and a calcium chloride solution. Since under these conditions the time of formation of the clot depends on the content of II, VII, IX and X factors in the investigated plasma sample, now the test is called “thromboplastin time by Quick” or “activity thromboplastin complex”.
Compounds 2, 15, 21, 37 according to the invention at a concentration of 15, 30 and 60 mg/kg were administered to the above experimental animals intravenously and their blood was taken off after 15, 30, 60 and 120 minutes after the administration.
Citrate blood containing 1 part of citrate per 9 parts of native blood was centrifuged at 3000 rev/min for 10 minutes to obtain plasma deprived of thrombocytes.
Added into a test tube in a water bath were 0.1 ml of plasma and 0.1 ml of a thromboplastin solution. After 60 seconds, 0.1 ml of 0.277% solution of calcium chloride was added and the time of reaction T1 in seconds was registered.

Assay [1] has as its system metabolism of nitrogen oxide. The assay can be described thus: Morphine abstinence model: nitrites and nitrates NOX− in blood plasma, liver and brain. The assay is classed as in vivo, rats Wistar. The settings on record: for Nitrites in blood plasma, Control + Compound / Nitrites in brain, Cortex of cerebrum, Control + Compound / Nitrites in brain, Hypothalamus, Control + Compound / Nitrites in brain, Mesencephalon, Control + Compound / Nitrites in liver, Control + Compound: compound alone 20.0 mg/kg intramuscularly; for Nitrites in blood plasma, Control + Morphine + compound / Nitrites in brain, Cortex of cerebrum, Control + Morphine + compound / Nitrites in brain, Hypothalamus, Control + Morphine + compound / Nitrites in brain, Mesencephalon, Control + Morphine + compound / Nitrites in liver, Control + Morphine + compound: morphinized rats then compound 20.0 mg/kg intramuscularly. The protocol: The experiments were carried out on rats in series of 7 animals on each compound according to the invention. Non-morphinized animal with not administered with compounds according to the invention were used as a control group. […] Then the rats were decapitated, the blood from somnolent arteries was collected in test tubes with solution EDTA as an anticoagulant, centrifuged at 1500 g for 15 minutes at 4° C.
To estimate the intensity of metabolism of nitrogen oxide in rats, quantitative determination of stable metabolites of nitrogen oxide—nitrites and nitrates NOX^− in the blood plasma, supernatanates of the liver and thymus gland, a study was conducted by a spectrometric method, and in the brain supernatanates by a […] method.
The spectrometric method is based the reaction of nitrites with the Griss reagent (a mixture of 2% solution of sulfanilamide and 0.2% N-(1-naphthyl)ethylene diamine. At the first step the nitrite reacts with sulfanilamide with formation of diazonium salt, and then with the second component to form azo dye with an adsorption maximum at 540 nm. For reduction of nitrates into nitrites, a fermentative method was used with bacterial reductase nitrate (Grisham M. B. et al., 1995). The samples of plasma and supernatant of the liver deproteinizated at 100° C. for 5 minutes incubated for 30 minutes at 37° C. in 50.0 mM of HEPES pH 7.4 in the presence of 0.2 unit/ml of Aspergillus reductase nitrate, 5.0 mkM of FAD and 0.1 mM of NAD-Ph. At the end of the reaction lactate dehydrogenase and pyruvate were added for isolation of NAD-Ph interfering with the Griss reaction. Then the Griss reagent was added and after 10-minute incubation the light absorption of the samples was measured at 540 nm. To amount of NOX^− was calculated using sodium nitrate as a standard.
The fluorometric method is based on calculation of the nitrite level by the intensity fluorescence of 2,3-diaminonaphthotriazole, a product of reaction of 2,3-diaminonaphthalene (DAN) and nitrite in an acidic medium (Misko T. R., Schilling R. J., Salvemini D. et al. “A fluorometric assay for the measurement of nitrite of biological samples”. Anal. Biochem., 1993, v. 214, p. 11-16). The brain supernatants deproteinizated at 100° C. were placed in a nitrite regenerating system containing 0.125 unit/ml of nitrate reductases, 25 mkM NADPh and 25 mkM FAD prepared in a 20-mM Tris-HCl buffer with pH 7.6 and incubated for 30 minutes at 37° C. The lactatedehydrogenase/pyruvate system was used for oxidation of the NADPh. Then 316 mkM of the DAN solution in 0.62 M of hydrochloric acids were added and the mixture was incubated for 10 minutes in darkness.
280 mM of NaOH were added for stabilization of the fluorescence of the formed 2,3-diaminonaphthotriazole. The fluorescence intensity was measured in the spectrofluorimeter Hitachi F-3000 at a wavelength of excitation of 365 nm and an emission of 405 nm. The concentration of NOX^− in the brain was calculated by means of a standard solution of sodium nitrate.

The test system of the next assay is thymus. The assay can be described thus: Morphine abstinence model: thymus condition. The assay is classed as in vivo, rats. The note with it: morphinized rats then compound. The protocol: The effect of the compounds according to the invention on the condition of the thymus of the rats was also investigated: a control group, an experimental group of morphinized animals and an experimental group of animals were first morphinized and then injected with the compounds according to the invention. The experiment was carried out similarly to that described above.

On to `Nc1ccnc2c(=O)n([C@@H]3O[C@H](CO)[C@@H](O)[C@H]3O)[nH]c(=O)c12` [Compound 2, 4-amino-7-(β-D-ribofuranosile)pyrido[2,3-d]-6H-pyridazine-5,8-dione], for which, in the assay with plasma hemostasis (dose 15.0 mg/kg intravenously), the “T, s After 120 minutes (prothrombin time)” value (“T, s After 120 minutes” for short) was determined as 11.7 ± 0.1 s; the “T, s after 15 minutes (prothrombin time)” value was determined as 11.7 ± 0.2 s; the “T, s after 30 minutes (prothrombin time)” value was found to be 11.5 ± 0.2 s; the “T, s after 60 minutes (prothrombin time)” value turned out to be 11.4 ± 0.2 s. Besides, in the assay on plasma hemostasis (dose 30.0 mg/kg intravenously), the “T, s After 120 minutes” value stood at 11.2 ± 0.2 s; the “T, s after 15 minutes (prothrombin time)” value is 11.1 ± 0.2 s; the “T, s after 30 minutes (prothrombin time)” value was 11.0 ± 0.1 s; the “T, s after 60 minutes (prothrombin time)” value was found to be 11.3 ± 0.1 s. In the assay on plasma hemostasis (dose 60.0 mg/kg intravenously), the “T, s After 120 minutes” value is listed as 11.9 ± 0.1 s; the “T, s after 15 minutes (prothrombin time)” value came out at 12.0 ± 0.1 s; the “T, s after 30 minutes (prothrombin time)” value is given as 11.9 ± 0.2 s; the “T, s after 60 minutes (prothrombin time)” value is reported as 12.1 ± 0.2 s. In the assay on plasma hemostasis, the “effect on the prothrombin time index (overall)” value was “have no effect on the prothrombin time index”.

On to `Nc1cccc2c(=O)[nH][nH]c(=O)c12.[Na]` [Compound 15, sodium salt of 5-amino-benzo[d]-3H-pyridazine-1,4-dione], for which, in the assay on plasma hemostasis (dose 15.0 mg/kg intravenously), the “T, s After 120 minutes” value was found to be 11.5 ± 0.2 s; the “T, s after 15 minutes (prothrombin time)” value turned out to be 11.5 ± 0.2 s; the “T, s after 30 minutes (prothrombin time)” value stood at 11.7 ± 0.2 s; the “T, s after 60 minutes (prothrombin time)” value is on record as 11.2 ± 0.2 s. Besides, in the assay on plasma hemostasis (dose 30.0 mg/kg intravenously), the “T, s After 120 minutes” value stood at 11.3 ± 0.2 s; the “T, s after 15 minutes (prothrombin time)” value is on record as 11.0 ± 0.2 s; the “T, s after 30 minutes (prothrombin time)” value was 11.2 ± 0.2 s; the “T, s after 60 minutes (prothrombin time)” value is 11.4 ± 0.2 s. Also, in the assay with plasma hemostasis (dose 60.0 mg/kg intravenously), the “T, s After 120 minutes” value is 12.0 ± 0.1 s; the “T, s after 15 minutes (prothrombin time)” value worked out at 12.0 ± 0.1 s; the “T, s after 30 minutes (prothrombin time)” value worked out at 12.0 ± 0.1 s; the “T, s after 60 minutes (prothrombin time)” value was determined as 12.0 ± 0.2 s. Moreover, the “effect on the prothrombin time index (overall)” value in the assay with plasma hemostasis is “have no effect on the prothrombin time index”. Also, in assay [1], the “Nitrites in blood plasma, Control + Compound” value is given as 14.39 ± 0.84 mkmol/ml; the “Nitrites in brain, Cortex of cerebrum, Control + Compound” value is 4.31 ± 0.37 nmol/mg of protein; the “Nitrites in brain, Hypothalamus, Control + Compound” value is reported as 6.77 ± 0.83 nmol/mg of protein; the “Nitrites in brain, Mesencephalon, Control + Compound” value is 6.65 ± 0.70 nmol/mg of protein. For the same compound, in assay [1], the “Nitrites in liver, Control + Compound” value was 0.259 ± 0.019 nmol/mg of protein; the “Nitrites in blood plasma, Control + Morphine + compound” value is on record as 13.91 ± 1.91 mkmol/ml; the “Nitrites in brain, Cortex of cerebrum, Control + Morphine + compound” value was 4.72 ± 0.37 nmol/mg of protein; the “Nitrites in brain, Hypothalamus, Control + Morphine + compound” value is recorded as 6.57 ± 0.88 nmol/mg of protein. In assay [1], the “Nitrites in brain, Mesencephalon, Control + Morphine + compound” value was 5.50 ± 0.43 nmol/mg of protein and the “Nitrites in liver, Control + Morphine + compound” value is 0.285 ± 0.02 nmol/mg of protein. Besides, in the assay with thymus, the “Nitrites, thymus Supernatant, Administration of morphine and compound” value was 0.383 ± 0.02 nmol/mg of protein; the “Thymus mass, Administration of morphine and compound” value turned out to be 214 ± 12 mg.

For `Nc1cnc2c(=O)n([C@@H]3O[C@H](CO)[C@@H](O)[C@H]3O)[nH]c(=O)c2n1.[Na]` [Compound 21, sodium salt of 3-amino-7-(β-D-ribofuranosile)pyrazine[2,3-d]-6H-pyridazine-5,8-dione], in the assay on plasma hemostasis (dose 15.0 mg/kg intravenously), the “T, s After 120 minutes” value was 11.5 ± 0.2 s; the “T, s after 15 minutes (prothrombin time)” value is on record as 11.4 ± 0.2 s; the “T, s after 30 minutes (prothrombin time)” value was found to be 11.5 ± 0.1 s; the “T, s after 60 minutes (prothrombin time)” value came to 11.3 ± 0.1 s. Further, in the assay on plasma hemostasis (dose 30.0 mg/kg intravenously), the “T, s After 120 minutes” value turned out to be 11.2 ± 0.2 s; the “T, s after 15 minutes (prothrombin time)” value was determined as 11.2 ± 0.1 s; the “T, s after 30 minutes (prothrombin time)” value is listed as 11.2 ± 0.1 s; the “T, s after 60 minutes (prothrombin time)” value is listed as 11.3 ± 0.2 s. Further, in the assay on plasma hemostasis (dose 60.0 mg/kg intravenously), the “T, s After 120 minutes” value is on record as 12.0 ± 0.2 s; the “T, s after 15 minutes (prothrombin time)” value was found to be 12.0 ± 0.2 s; the “T, s after 30 minutes (prothrombin time)” value is recorded as 11.8 ± 0.1 s; the “T, s after 60 minutes (prothrombin time)” value was found to be 12.1 ± 0.1 s. The “effect on the prothrombin time index (overall)” value in the assay on plasma hemostasis is listed as “have no effect on the prothrombin time index”.

With `O=c1[nH][nH]c(=O)c2nccnc12.[Li]` [Compound 25, lithium salt of pyrazine[2,3-d]-6H-pyridazine-5,8-dione], in assay [1], the “Nitrites in blood plasma, Control + Compound” value was determined as 17.10 ± 2.05 mkmol/ml; the “Nitrites in brain, Cortex of cerebrum, Control + Compound” value is 4.47 ± 0.43 nmol/mg of protein; the “Nitrites in brain, Hypothalamus, Control + Compound” value was 6.87 ± 0.80 nmol/mg of protein; the “Nitrites in brain, Mesencephalon, Control + Compound” value was 6.98 ± 1.02 nmol/mg of protein. Moreover, in assay [1], the “Nitrites in liver, Control + Compound” value is given as 0.307 ± 0.012 nmol/mg of protein; the “Nitrites in blood plasma, Control + Morphine + compound” value was 16.78 ± 2.11 mkmol/ml; the “Nitrites in brain, Cortex of cerebrum, Control + Morphine + compound” value is 4.91 ± 0.32 nmol/mg of protein; the “Nitrites in brain, Hypothalamus, Control + Morphine + compound” value is 6.67 ± 0.79 nmol/mg of protein. Besides, in assay [1], the “Nitrites in brain, Mesencephalon, Control + Morphine + compound” value was 5.91 ± 0.74 nmol/mg of protein and the “Nitrites in liver, Control + Morphine + compound” value is given as 0.287 ± 0.01 nmol/mg of protein. Besides, in the assay on thymus, the “Nitrites, thymus Supernatant, Administration of morphine and compound” value was 0.396 ± 0.02 nmol/mg of protein; the “Thymus mass, Administration of morphine and compound” value was determined as 218 ± 17 mg.
